In ChEMBL document CHEMBL1201862, “PubChem BioAssay data set” (2004):
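Interpolation was linear, between the two tested concentrations surrounding the appropriate level; five concentrations were tested over 48 hours in 96-well plates. GI50 = concentration required for 50% inhibition of growth.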 The source made the active and inactive calls. Cut-off read from the data, not from the text of the source: active = GI50 up to about 1.1 µM and inactive = higher.

Columns and labels:
Test in all cases: growth of human tumour cells (NCI), 48 h
[1] = tested on: K562
[2] = tested on: NCI-H23
[3] = tested on: SNB-19
[4] = tested on: U-251
[5] = tested on: NCI-H460
[6] = tested on: IGROV-1
[7] = tested on: MDA-MB-435
[8] = tested on: DU-145
[9] = tested on: T47D
[10] = tested on: OVCAR-5
[11] = tested on: HT-29
[12] = tested on: CAKI-1
[13] = tested on: NCI/ADR-RES
[14] = tested on: OVCAR-4
[15] = tested on: UO-31
[16] = tested on: UACC-62
[17] = tested on: HCT-116
[18] = tested on: ACHN
[19] = tested on: NCI-H522

Measured: GI50

CSc1ncc2c(C#N)c3ccccn3c(=O)c2n1
inactive: [1] > 100 µM | [2] > 100 µM | [3] > 100 µM | [4] > 100 µM | [5] 57.3 µM | [6] > 100 µM | [7] > 100 µM | [8] > 100 µM | [9] > 100 µM | [10] > 100 µM | [11] > 100 µM | [12] > 100 µM | [13] > 100 µM | [14] > 100 µM | [15] > 100 µM | [16] > 100 µM | [17] 88.5 µM | [18] > 100 µM

O=C(CNc1ccccc1[N+](=O)[O-])Nn1cnc2ccc(S(=O)(=O)Nc3ccccc3[N+](=O)[O-])cc2c1=O
inactive: [1] > 100 µM | [19] > 100 µM | [2] > 100 µM | [3] > 100 µM | [4] > 100 µM | [5] > 100 µM | [6] 78.9 µM | [7] > 100 µM | [8] > 100 µM | [10] > 100 µM | [11] > 100 µM | [12] > 100 µM | [13] > 100 µM | [14] > 100 µM | [15] 73.8 µM | [16] > 100 µM | [17] > 100 µM | [18] > 100 µM

CCCN(CCC)CCc1cc(C(C)=O)n(S(=O)(=O)c2ccc(C)cc2)c1
inactive: [1] 80.9 µM | [19] > 100 µM | [2] > 100 µM | [3] > 100 µM | [4] > 100 µM | [5] > 100 µM | [6] > 100 µM | [10] > 100 µM | [11] 45.6 µM | [12] 84.7 µM | [14] > 100 µM | [15] 83.2 µM | [16] > 100 µM | [17] > 100 µM | [18] > 100 µM

N#C/C(=C/NC(=S)c1ccncc1)C(N)=O
inactive: [2] > 100 µM | [3] > 100 µM | [4] > 100 µM | [5] > 100 µM | [6] > 100 µM | [7] > 100 µM | [8] > 100 µM | [9] > 100 µM | [10] > 100 µM | [11] > 100 µM | [12] > 100 µM | [13] > 100 µM | [14] > 100 µM | [15] > 100 µM | [16] > 100 µM | [17] > 100 µM | [18] > 100 µM

CC(C)OP(=O)(OC(C)C)C(C(C)C)N(C)/C(N)=N\C1=NC(C(F)(F)F)(C(F)(F)F)N=C(C(C(F)(F)F)C(F)(F)F)O1 (stereo not given)
inactive: [1] 1.76 µM | [19] 1.41 µM | [2] 3.61 µM | [3] 11.9 µM | [4] 3.08 µM | [5] 2.64 µM | [6] 2.39 µM | [7] 1.8 µM | [8] 6.9 µM | [9] 3.01 µM | [10] 2.55 µM | [11] 2.46 µM | [12] 3.12 µM | [15] 4.47 µM | [16] 2.01 µM | [17] 2.31 µM | [18] 2.59 µM

Cc1cc(S(=O)(=O)[N-]/C(=N/S(=O)(=O)c2ccc(Cl)cc2)[n+]2ccc(N(C)C)cc2)c(SCC(=O)O)cc1Cl
inactive: [1] 37.8 µM | [2] > 100 µM | [3] > 100 µM | [4] > 100 µM | [5] 42.8 µM | [7] > 100 µM | [8] > 100 µM | [9] > 100 µM | [10] 21.5 µM | [11] 57.5 µM | [12] > 100 µM | [14] 34.8 µM | [15] > 100 µM | [16] 91.4 µM | [17] 26.4 µM | [18] > 100 µM

CC(=O)OCC1OC(c2nc3ccccc3s2)=CC(OC(C)=O)C1OC(C)=O (stereo not given)
inactive: [1] 50.5 µM | [19] > 100 µM | [2] > 100 µM | [3] > 100 µM | [4] 89.9 µM | [5] > 100 µM | [6] > 100 µM | [7] > 100 µM | [8] > 100 µM | [10] > 100 µM | [11] > 100 µM | [12] > 100 µM | [13] > 100 µM | [14] > 100 µM | [15] > 100 µM | [17] 57.5 µM | [18] > 100 µM

Cc1ccc(S(=O)(=O)N/N=C2\C=CC3(CC2)C(=O)N(I)c2ccccc23)cc1 (stereo not given)
inactive: [1] 25.1 µM | [2] > 100 µM | [3] > 100 µM | [4] > 100 µM | [5] 94.4 µM | [7] > 100 µM | [8] > 10 µM | [9] > 100 µM | [10] > 100 µM | [11] > 100 µM | [12] > 100 µM | [13] > 100 µM | [14] > 100 µM | [15] > 100 µM | [16] > 100 µM | [17] 87.5 µM | [18] > 100 µM

CC(=O)/C(=C/N1C(=O)CC(=O)NC1=S)C(=O)Nc1ccccc1C
inactive: [2] 41.2 µM | [3] > 100 µM | [4] 36 µM | [5] 39.2 µM | [6] 91 µM | [7] 66.8 µM | [8] 97.3 µM | [9] 81.3 µM | [10] > 100 µM | [11] 23.5 µM | [12] 87.9 µM | [13] 39.7 µM | [14] 57.5 µM | [15] > 100 µM | [16] 24.3 µM | [17] 31.6 µM | [18] 58.9 µM

Cc1ccc(S(=O)(=O)Nn2c(O)c(C#N)c(-c3ccc([N+](=O)[O-])cc3)c(C#N)c2=O)cc1
inactive: [1] > 100 µM | [19] > 100 µM | [3] > 100 µM | [4] > 100 µM | [5] > 100 µM | [6] > 100 µM | [7] > 100 µM | [10] > 100 µM | [11] > 100 µM | [12] > 100 µM | [13] > 100 µM | [14] > 100 µM | [16] > 100 µM | [17] > 100 µM | [18] > 100 µM

O=C1C2CC=CCC2C(=O)N1n1c(Cc2ccccc2)n[nH]c1=O (stereo not given)
inactive: [1] > 100 µM | [19] > 100 µM | [2] > 100 µM | [3] > 100 µM | [4] > 100 µM | [5] > 100 µM | [6] > 100 µM | [7] > 100 µM | [9] > 100 µM | [10] > 100 µM | [11] > 100 µM | [12] > 100 µM | [13] > 100 µM | [14] > 100 µM | [15] > 100 µM | [16] > 100 µM | [17] > 100 µM | [18] > 100 µM
